# Changes are numbered by the printed parent chain. Where a SMILES comes first, the peptide text is derived from it. Where no end group is shown, it is not given here.
# What was measured:
# [1] = biological target: T1, HLA-DPB1*0402 (Homo sapiens, UniProt P04440+P20036, A65V/A84D/A85E/L207M); experiment: biochemical; format: binding
# T1 sequence (P04440 30-258 A65V/A84D/A85E): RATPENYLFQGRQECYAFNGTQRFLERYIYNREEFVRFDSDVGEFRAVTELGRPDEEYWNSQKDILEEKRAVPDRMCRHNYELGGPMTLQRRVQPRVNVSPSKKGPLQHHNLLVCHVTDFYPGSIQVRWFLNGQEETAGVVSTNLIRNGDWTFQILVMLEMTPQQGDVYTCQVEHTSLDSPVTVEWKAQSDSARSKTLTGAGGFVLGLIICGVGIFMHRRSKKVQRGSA
# T1 sequence (P20036 29-260): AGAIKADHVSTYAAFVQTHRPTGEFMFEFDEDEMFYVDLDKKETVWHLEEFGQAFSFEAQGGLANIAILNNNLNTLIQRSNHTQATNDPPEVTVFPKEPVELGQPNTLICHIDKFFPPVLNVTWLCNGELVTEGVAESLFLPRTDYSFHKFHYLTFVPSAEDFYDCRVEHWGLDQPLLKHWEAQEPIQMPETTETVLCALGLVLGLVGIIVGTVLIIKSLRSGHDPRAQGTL
# [2] = biological target: T2, HLA-DPB1*0201 (Homo sapiens, UniProt P04440+P20036, A65V/A84D/A85E/K98E); experiment: biochemical; format: binding
# T2 sequence (P04440 30-258 A65V/A84D/A85E/K98E): T1 sequence (P04440 30-258 A65V/A84D/A85E) with K69E
# T2 sequence (P20036 29-260): T1 sequence (P20036 29-260)
Compound,IC50 [1] [nM],IC50 [2] [nM]
CC[C@H](C)[C@H](NC(=O)[C@@H](N)Cc1c[nH]c2ccccc12)C(=O)N[C@H](C(=O)N[C@@H](CCC(N)=O)C(=O)N[C@@H](CS)C(=O)N[C@@H](Cc1ccccc1)C(=O)N[C@@H](CC(C)C)C(=O)N1CCC[C@H]1C(=O)N[C@H](C(=O)N[C@@H](Cc1ccccc1)C(=O)N[C@@H](CC(C)C)C(=O)N[C@@H](C)C(=O)N[C@@H](CCC(N)=O)C(=O)N1CCC[C@H]1C(=O)N1CCC[C@H]1C(=O)N[C@@H](CO)C(=O)NCC(=O)N[C@@H](CCC(N)=O)C(=O)N[C@@H](CCCNC(=N)N)C(=O)N[C@@H](CCCNC(=N)N)C(=O)O)C(C)C)[C@@H](C)O,25,–
CSCC[C@H](NC(=O)[C@H](CCSC)NC(=O)[C@@H](N)CCCNC(=N)N)C(=O)N[C@@H](CCC(=O)O)C(=O)N[C@@H](Cc1ccc(O)cc1)C(=O)NCC(=O)N[C@H](C(=O)N[C@H](C(=O)N[C@@H](CCSC)C(=O)N[C@H](C(=O)N[C@@H](CO)C(=O)N[C@@H](Cc1ccc(O)cc1)C(=O)N[C@@H](CCC(N)=O)C(=O)N1CCC[C@H]1C(=O)N[C@@H](CC(C)C)C(=O)O)C(C)C)[C@@H](C)O)[C@@H](C)O,1310,725
CC[C@H](C)[C@H](NC(=O)[C@H](CO)NC(=O)[C@H](Cc1ccc(O)cc1)NC(=O)[C@H](C)NC(=O)[C@H](CS)NC(=O)[C@H](CC(C)C)NC(=O)[C@H](CC(C)C)NC(=O)[C@H](CS)NC(=O)[C@@H](N)CC(=O)O)C(=O)N[C@@H](CCC(=O)O)C(=O)N[C@@H](Cc1ccccc1)C(=O)NCC(=O)N[C@H](C(=O)N[C@@H](CC(N)=O)C(=O)N[C@H](C(=O)N[C@@H](CO)C(=O)N[C@@H](CCCCN)C(=O)N[C@@H](CCC(=O)O)C(=O)N[C@@H](Cc1c[nH]cn1)C(=O)N[C@@H](CC(=O)O)C(=O)O)[C@@H](C)CC)[C@@H](C)O (H-DCLLCAYSIEFGTNISKEHD-OH),232,343
CC(C)C[C@H](NC(=O)[C@H](CO)NC(=O)[C@H](CCC(N)=O)NC(=O)[C@@H](N)CC(C)C)C(=O)N[C@H](C(=O)N[C@@H](CO)C(=O)N[C@@H](CCC(N)=O)C(=O)N[C@@H](Cc1ccc(O)cc1)C(=O)N[C@@H](Cc1ccccc1)C(=O)N[C@@H](CCC(N)=O)C(=O)N[C@H](C(=O)N[C@H](C(=O)N[C@@H](C)C(=O)N[C@@H](CC(=O)O)C(=O)N[C@@H](Cc1ccc(O)cc1)C(=O)O)C(C)C)[C@@H](C)O)C(C)C,–,2.7
RELWWVFYAAD,–,291
CC(C)C[C@H](NC(=O)[C@@H](NC(=O)[C@H](CC(N)=O)NC(=O)[C@H](Cc1ccccc1)NC(=O)[C@H](CC(C)C)NC(=O)[C@H](CO)NC(=O)[C@H](Cc1c[nH]c2ccccc12)NC(=O)[C@@H](NC(=O)[C@@H](NC(=O)[C@H](Cc1c[nH]cn1)NC(=O)[C@H](CC(=O)O)NC(=O)[C@@H]1CCCN1C(=O)[C@@H](N)C(C)C)C(C)C)C(C)C)[C@@H](C)O)C(=O)O,8.4,1.1
CDGERPTLAFLQDVM,15200,32800
SDVGEFRAVTELG,4050,619
RSQPGLCNMYKDSHHPARTA,7780,4590
INEPTAAAIAYGLDR,11600,4150
DTLRSYYADWYQQKPG,1550,188
CC[C@H](C)[C@H](NC(=O)[C@H](CC(=O)O)NC(=O)[C@@H](N)CCCCN)C(=O)N[C@@H](CC(C)C)C(=O)N[C@@H](CCC(=O)O)C(=O)N[C@@H](CC(=O)O)C(=O)N[C@@H](CCC(=O)O)C(=O)N[C@@H](CCCNC(=N)N)C(=O)N[C@@H](C)C(=O)N[C@@H](C)C(=O)N[C@H](C(=O)N[C@@H](CC(=O)O)C(=O)N[C@H](C(=O)N[C@@H](Cc1ccc(O)cc1)C(=O)N[C@@H](CS)C(=O)O)[C@@H](C)O)C(C)C,4200,10500
EEVDMTPADALDDFD,26000,5800
NNKYAASSYLSLTPE,42,2.4
LTGYSLFQKEKMVLN,–,180
CC[C@H](C)[C@H](NC(=O)[C@H](CCC(N)=O)NC(=O)[C@H](CS)NC(=O)[C@H](Cc1ccc(O)cc1)NC(=O)[C@H](CC(N)=O)NC(=O)[C@H](CO)NC(=O)[C@@H](NC(=O)CNC(=O)[C@H](Cc1ccccc1)NC(=O)[C@H](CCCNC(=N)N)NC(=O)[C@H](CCC(N)=O)NC(=O)[C@H](C)NC(=O)[C@@H](N)CC(N)=O)[C@@H](C)CC)C(=O)O,365,7.8
CC[C@H](C)[C@H](NC(=O)[C@H](C)NC(=O)[C@H](CS)NC(=O)[C@H](C)NC(=O)[C@H](CC(C)C)NC(=O)[C@@H](NC(=O)CNC(=O)[C@H](CC(=O)O)NC(=O)[C@H](CC(=O)O)NC(=O)CNC(=O)[C@@H](N)CCSC)C(C)C)C(=O)N[C@@H](C)C(=O)N[C@H](C(=O)N[C@@H](Cc1c[nH]cn1)C(=O)N[C@@H](C)C(=O)N[C@@H](CCCCN)C(=O)N[C@H](C(=O)N[C@@H](CCCNC(=N)N)C(=O)N[C@@H](CC(=O)O)C(=O)O)[C@@H](C)CC)[C@@H](C)O,–,8790
CC[C@H](C)[C@H](NC(=O)[C@H](CC(=O)O)NC(=O)[C@H](CC(=O)O)NC(=O)[C@H](Cc1ccccc1)NC(=O)[C@H](C)NC(=O)[C@H](CCCCN)NC(=O)[C@H](CCC(N)=O)NC(=O)[C@@H](NC(=O)[C@H](CCCCN)NC(=O)[C@@H](N)CCC(=O)O)[C@@H](C)CC)C(=O)N[C@@H](C)C(=O)N[C@@H](CCCCN)C(=O)N[C@@H](Cc1ccc(O)cc1)C(=O)N[C@@H](Cc1ccccc1)C(=O)N[C@@H](CO)C(=O)N[C@@H](CCCCN)C(=O)O,506,75
TPTEKDEYCARVNH,14000,–
CC[C@H](C)[C@H](NC(=O)[C@H](CO)NC(=O)[C@H](CCC(=O)O)NC(=O)[C@H](C)NC(=O)[C@H](CCC(=O)O)NC(=O)[C@H](CCSC)NC(=O)[C@H](CCC(N)=O)NC(=O)[C@H](CCCCN)NC(=O)[C@@H](NC(=O)[C@H](CC(=O)O)NC(=O)[C@H](CCC(=O)O)NC(=O)[C@H](CCSC)NC(=O)[C@H](C)NC(=O)[C@H](CCC(N)=O)NC(=O)[C@H](CC(=O)O)NC(=O)[C@H](CCC(=O)O)NC(=O)[C@@H](N)[C@@H](C)O)[C@@H](C)CC)C(=O)N[C@@H](CO)C(=O)O,2470,4770
DKKETVWHLE,3740,93
CC[C@H](C)[C@H](NC(=O)[C@H](Cc1c[nH]c2ccccc12)NC(=O)[C@H](CCSC)NC(=O)[C@H](CC(C)C)NC(=O)[C@H](CC(C)C)NC(=O)[C@@H](N)CO)C(=O)N[C@H](C(=O)N[C@@H](CCC(N)=O)C(=O)N[C@@H](CS)C(=O)N[C@@H](Cc1ccccc1)C(=O)N[C@@H](CC(C)C)C(=O)N1CCC[C@H]1C(=O)N[C@H](C(=O)O)C(C)C)[C@@H](C)O,6.1,1.3
DVKFPGGGQIVGGVYLLPRR,33,–
CC(C)C[C@H](NC(=O)[C@@H](NC(=O)[C@H](Cc1c[nH]cn1)NC(=O)[C@H](CO)NC(=O)[C@H](Cc1ccccc1)NC(=O)[C@H](CO)NC(=O)CNC(=O)CNC(=O)[C@H](CC(C)C)NC(=O)[C@H](Cc1ccc(O)cc1)NC(=O)[C@H](CCCNC(=N)N)NC(=O)[C@H](Cc1ccc(O)cc1)NC(=O)[C@H](CC(C)C)NC(=O)[C@@H]1CCCN1)C(C)C)C(=O)O,149,13
CC[C@H](C)[C@H](NC(=O)[C@H](Cc1ccc(O)cc1)NC(=O)[C@H](CCC(=O)O)NC(=O)[C@H](Cc1ccccc1)NC(=O)[C@H](C)NC(=O)[C@H](CCC(N)=O)NC(=O)[C@H](CO)NC(=O)[C@@H]1CCCN1C(=O)[C@@H](N)CC(C)C)C(=O)N[C@@H](CC(C)C)C(=O)N[C@@H](Cc1ccc(O)cc1)C(=O)N[C@@H](CC(N)=O)C(=O)N[C@@H](CCCCN)C(=O)NCC(=O)O,9.6,1
CC[C@H](C)[C@H](NC(=O)[C@H](C)NC(=O)[C@H](CC(=O)O)NC(=O)[C@H](CCCCN)NC(=O)[C@H](CC(C)C)NC(=O)[C@@H](NC(=O)[C@H](CCC(=O)O)NC(=O)[C@H](C)NC(=O)[C@H](Cc1ccccc1)NC(=O)[C@@H](NC(=O)[C@H](Cc1c[nH]cn1)NC(=O)[C@@H](NC(=O)[C@H](CCC(N)=O)NC(=O)[C@H](CC(C)C)NC(=O)[C@H](Cc1ccccc1)NC(=O)[C@@H](N)C(C)C)[C@@H](C)O)[C@@H](C)CC)C(C)C)C(=O)N[C@@H](CCCCN)C(=O)N[C@@H](CC(=O)O)C(=O)N[C@@H](CC(C)C)C(=O)O,5.6,32
FDRSTKVIDFHYPNE,30400,–
CC[C@H](C)[C@H](NC(=O)[C@H](CS)NC(=O)[C@@H]1CCCN1C(=O)[C@H](CCC(=O)O)NC(=O)[C@H](CO)NC(=O)CNC(=O)[C@@H](N)Cc1c[nH]cn1)C(=O)N[C@H](C(=O)N[C@@H](Cc1c[nH]cn1)C(=O)N[C@@H](CCCNC(=N)N)C(=O)NCC(=O)N[C@@H](CCCCN)C(=O)N1CCC[C@H]1C(=O)N[C@@H](Cc1ccccc1)C(=O)N[C@@H](CCC(N)=O)C(=O)N[C@@H](CC(C)C)C(=O)N[C@@H](CCC(=O)O)C(=O)N[C@@H](C)C(=O)N[C@H](C(=O)O)C(C)C)[C@@H](C)CC,1410,820

# — PMC2935290 (Journal of immunology (Baltimore, Md. : 1950), 2010)
